According to patent US9200005B2, “Inhibitor compounds of phosphodiesterase type 10A” (AbbVie Deutschland GmbH & Co. KG, priority 2013, dated 2015):
Structures can show the parent of a compound that is named as a salt.

What was measured:
[1] = target: PDE10A (UniProt Q9Y233); experiment: Measurement of PDE activity (HTRF cAMP kit, recombinant PDE10A); format: biochemical, human, rat and mouse; conditions: substrate 20 nM, 60 minutes at 29° C.
Experimental: a) Measurement of PDE Activity
The recombinant PDE proteins are used in in vitro enzymatic reaction for measurement of PDE activity. These recombinant proteins, including PDE10A (human, rat and mouse PDE10) and isoforms of PDEs 1, 3, 4, and 5, were purchased from commercial vendor BPS Bioscience. The enzymatic activity of PDEs was determined by cAMP measurement kit from CisBio (IBA) using HTRF technology.
The PDE enzymatic reaction was carried out in assay buffer (20 mM Tris-HCl pH 7.5, 10 mM MgCl2, 0.1% bovine serum albumin) containing enzyme and substrate. […] The substrate cyclic nucleotide (cAMP or cGMP) concentration used in the assay was 20 nM for PDE10, and 100 nM for other PDEs. The inhibitory effect of compound was determined by incubating various concentration of inhibitor in the enzymatic assay. […] Next, the compound at varying concentration was mixed with PDE enzyme. The reaction was initiated by addition of cyclic nucleotide substrate, and incubated for 60 minutes at 29° C. The reaction was stopped by addition of lysis buffer from the assay kit. The cAMP-d2 and anti-cAMP cryptate in the lysis buffer detected the level of cAMP left from the PDE hydrolysis reaction. […] Thus, IC50 value of inhibitor can be obtained by plotting inhibitor concentration against PDE activity at that concentration.

[2] = Determination of the microsomal half-life / microsomal clearance, human liver microsomes; format: in vitro ADME; conditions: 0.5 μM test substance, 0.25 mg of microsomal protein/mL, NADPH, 37° C.
Experimental: (§1) b) Determination of the Microsomal Half-Life:
(§2) The metabolic stability of the compounds of the invention was determined in the following assay.
(§3) The test substances were incubated in a concentration of 0.5 μM as follows:
(§4) 0.5 μM test substance are preincubated together with liver microsomes from different species (from rat, human or other species) (0.25 mg of microsomal protein/mL) in 0.05 M potassium phosphate buffer of pH 7.4 in microtiter plates at 37° C. for 5 min. The reaction is started by adding NADPH (1 mg/mL). After 0, 5, 10, 15, 20 and 30 min, 50 μl aliquots are removed, and the reaction is immediately stopped and cooled with the same volume of acetonitrile. The samples are frozen until analyzed. The remaining concentration of undegraded test substance is determined by MSMS. The half-life (T½) is determined from the gradient of the signal of test substance/unit time plot, it being possible to calculate the half-life of the test substance, assuming first order kinetics, from the decrease in the concentration of the compound with time. The microsomal clearance (mCl) is calculated from mCl=ln 2/T½/(content of microsomal protein in mg/mL)×1000 [mL/min/mg] (modified from references: Di, The Society for Biomoleculur Screening, 2003, 453-462; Obach, DMD, 1999 vol 27. N 11, 1350-1359).

[3] = Determination of the microsomal half-life / microsomal clearance, rat liver microsomes; format: in vitro ADME; conditions: 0.5 μM test substance, 0.25 mg of microsomal protein/mL, NADPH, 37° C.
Experimental: as §1, §2, §3, §4

Compound | IC50 [1] [nM] | Human mCl [2] | Rat mCl [3]
Cn1nc(-c2cccc(C(F)(F)F)c2)c2scc(-c3ccncc3)c2c1=O [Example 114, 5-methyl-3-(pyridin-4-yl)-7-[3-(trifluoromethyl)phenyl]thieno[2,3-d]pyridazin-4(5H)-one trifluoroacetate] | 100 to 200 | – | –
COc1ccc(-c2nn(C)c(=O)c3c(-c4ccncc4)csc23)cc1OC [Example 102, 7-(3,4-dimethoxyphenyl)-5-methyl-3-(pyridin-4-yl)thieno[2,3-d]pyridazin-4(5H)-one trifluoroacetate] | < 100 | – | –
methyl 3-({[5-methyl-4-oxo-3-(pyridin-4-yl)-4,5-dihydrothieno[2,3-d]pyridazin-7-yl]oxy}methyl)benzoate trifluoroacetate [Example 72] | < 100 | – | –
Cn1nc(-c2ccnc(F)c2)c2scc(-c3ccncc3)c2c1=O [Example 104, 7-(2-fluoropyridin-4-yl)-5-methyl-3-(pyridin-4-yl)thieno[2,3-d]pyridazin-4(5H)-one bis(trifluoroacetate)] | 100 to 200 | – | –
Cn1nc(OC2Cc3ccccc3C2)c2scc(-c3ccncc3)c2c1=O [Example 60, 7-(2,3-dihydro-1H-inden-2-yloxy)-5-methyl-3-(pyridin-4-yl)thieno[2,3-d]pyridazin-4(5H)-one trifluoroacetate] | 200 to 500 | – | –
Cn1nc(-c2ccncc2)c2scc(-c3cncnc3)c2c1=O [Example 6, 5-methyl-7-(pyridin-4-yl)-3-(pyrimidin-5-yl)thieno[2,3-d]pyridazin-4(5H)-one] | < 100 | – | –
Cc1ccc(-c2nn(C)c(=O)c3c(-c4ccncc4)csc23)cc1 [Example 121, 5-methyl-7-(4-methylphenyl)-3-(pyridin-4-yl)thieno[2,3-d]pyridazin-4(5H)-one trifluoroacetate] | 100 to 200 | – | –
Cn1nc(-c2ccc(Cl)cc2)c2scc(-c3ccncc3)c2c1=O [Example 110, 7-(4-chlorophenyl)-5-methyl-3-(pyridin-4-yl)thieno[2,3-d]pyridazin-4(5H)-one trifluoroacetate] | 200 to 500 | – | –
Cn1nc(-c2ccccc2F)c2scc(-c3ccncc3)c2c1=O [Example 115, 7-(2-fluorophenyl)-5-methyl-3-(pyridin-4-yl)thieno[2,3-d]pyridazin-4(5H)-one trifluoroacetate] | 200 to 500 | – | –
Cn1nc(-c2ccncc2)c2scc(N3CCN(C(=O)OC(C)(C)C)CC3)c2c1=O [Example 5, tert-butyl 4-[5-methyl-4-oxo-7-(pyridin-4-yl)-4,5-dihydrothieno[2,3-d]pyridazin-3-yl]piperazine-1-carboxylate] | – | ++ (++: <100 μl min^−1 mg^−1) | ++ (++: <100 μl min^−1 mg^−1)
Cn1nc(OCC2CCCCC2)c2scc(-c3ccncc3)c2c1=O [Example 57, 7-(cyclohexylmethoxy)-5-methyl-3-(pyridin-4-yl)thieno[2,3-d]pyridazin-4(5H)-one] | – | + (+: 100-220 μl min^−1 mg^−1) | + (+: 100-220 μl min^−1 mg^−1)
Cn1nc(OCc2ccc3c(c2)CN(C(=O)OC(C)(C)C)C3)c2scc(-c3ccncc3)c2c1=O [Example 80, tert-butyl 5-({[5-methyl-4-oxo-3-(pyridin-4-yl)-4,5-dihydrothieno[2,3-d]pyridazin-7-yl]oxy}methyl)-1,3-dihydro-2H-isoindole-2-carboxylate] | – | ++ (++: <100 μl min^−1 mg^−1) | ++ (++: <100 μl min^−1 mg^−1)
CN1CCN(c2nn(C)c(=O)c3c(-c4ccncc4)csc23)CC1 [Example 49, 5-methyl-7-(4-methylpiperazin-1-yl)-3-(pyridin-4-yl)thieno[2,3-d]pyridazin-4(5H)-one] | – | ++ (++: <100 μl min^−1 mg^−1) | ++ (++: <100 μl min^−1 mg^−1)
Cn1nc(OCC2CCC(F)(F)CC2)c2scc(-c3ccncc3)c2c1=O [Example 66, 7-[(4,4-difluorocyclohexyl)methoxy]-5-methyl-3-(pyridin-4-yl)thieno[2,3-d]pyridazin-4(5H)-one] | – | ++ (++: <100 μl min^−1 mg^−1) | ++ (++: <100 μl min^−1 mg^−1)
Cn1nc(-c2ccncc2)c2scc(-c3cc4ccccc4s3)c2c1=O.O=C(O)C(F)(F)F [Example 23, 3-(1-benzothiophen-2-yl)-5-methyl-7-(pyridin-4-yl)thieno[2,3-d]pyridazin-4(5H)-one trifluoroacetate] | – | + (+: 100-220 μl min^−1 mg^−1) | + (+: 100-220 μl min^−1 mg^−1)
Cn1nc(-c2ccncc2)c2scc(-c3ccccc3F)c2c1=O.O=C(O)C(F)(F)F [Example 36, 3-(2-fluorophenyl)-5-methyl-7-(pyridin-4-yl)thieno[2,3-d]pyridazin-4(5H)-one trifluoroacetate] | – | ++ (++: <100 μl min^−1 mg^−1) | ++ (++: <100 μl min^−1 mg^−1)
Cn1nc(-c2ccncc2)c2scc(-c3ccc(C(=O)NC4CC4)cc3)c2c1=O.O=C(O)C(F)(F)F [Example 40, N-cyclopropyl-4-[5-methyl-4-oxo-7-(pyridin-4-yl)-4,5-dihydrothieno[2,3-d]pyridazin-3-yl]benzamide trifluoroacetate] | – | ++ (++: <100 μl min^−1 mg^−1) | ++ (++: <100 μl min^−1 mg^−1)
Cn1nc(-c2ccncc2)c2scc(-c3ccc(C#N)cc3)c2c1=O.O=C(O)C(F)(F)F [Example 25, 4-[5-methyl-4-oxo-7-(pyridin-4-yl)-4,5-dihydrothieno[2,3-d]pyridazin-3-yl]benzonitrile trifluoroacetate] | – | ++ (++: <100 μl min^−1 mg^−1) | ++ (++: <100 μl min^−1 mg^−1)
Cn1cc(-c2csc3c(-c4ccncc4)nn(C)c(=O)c23)cn1.O=C(O)C(F)(F)F [Example 37, 5-methyl-3-(1-methyl-1H-pyrazol-4-yl)-7-(pyridin-4-yl)thieno[2,3-d]pyridazin-4(5H)-one trifluoroacetate] | – | ++ (++: <100 μl min^−1 mg^−1) | + (+: 100-220 μl min^−1 mg^−1)
COc1ccccc1-c1csc2c(-c3ccncc3)nn(C)c(=O)c12.O=C(O)C(F)(F)F [Example 39, 3-(2-methoxyphenyl)-5-methyl-7-(pyridin-4-yl)thieno[2,3-d]pyridazin-4(5H)-one trifluoroacetate] | – | ++ (++: <100 μl min^−1 mg^−1) | ++ (++: <100 μl min^−1 mg^−1)
Cn1nc(OCC2CCN(C(=O)OC(C)(C)C)CC2)c2scc(-c3ccncc3)c2c1=O [Example 79, tert-butyl 4-({[5-methyl-4-oxo-3-(pyridin-4-yl)-4,5-dihydrothieno[2,3-d]pyridazin-7-yl]oxy}methyl)piperidine-1-carboxylate] | – | + (+: 100-220 μl min^−1 mg^−1) | + (+: 100-220 μl min^−1 mg^−1)
Cn1nc(-c2ccncc2)c2scc(CN3CCOCC3)c2c1=O [Example 13, 5-methyl-3-(morpholin-4-ylmethyl)-7-(pyridin-4-yl)thieno[2,3-d]pyridazin-4(5H)-one] | – | + (+: 100-220 μl min^−1 mg^−1) | + (+: 100-220 μl min^−1 mg^−1)
Cn1nc(OCC2CCNCC2)c2scc(-c3ccncc3)c2c1=O.O=C(O)C(F)(F)F [Example 125, 5-methyl-7-(piperidin-4-ylmethoxy)-3-(pyridin-4-yl)thieno[2,3-d]pyridazin-4(5H)-one bis(trifluoroacetate)] | – | ++ (++: <100 μl min^−1 mg^−1) | ++ (++: <100 μl min^−1 mg^−1)
Cn1nc(-c2ccncc2)c2scc(-c3cnn(Cc4ccccc4)c3)c2c1=O.O=C(O)C(F)(F)F.O=C(O)C(F)(F)F [Example 41, 3-(1-benzyl-1H-pyrazol-4-yl)-5-methyl-7-(pyridin-4-yl)thieno[2,3-d]pyridazin-4(5H)-one bis(trifluoroacetate)] | – | + (+: 100-220 μl min^−1 mg^−1) | ++ (++: <100 μl min^−1 mg^−1)
Cn1nc(-c2ccncc2)c2scc(-c3ccsc3)c2c1=O.O=C(O)C(F)(F)F [Example 34, 5-methyl-7-(pyridin-4-yl)-3-(thiophen-3-yl)thieno[2,3-d]pyridazin-4(5H)-one trifluoroacetate] | – | ++ (++: <100 μl min^−1 mg^−1) | + (+: 100-220 μl min^−1 mg^−1)
Cn1nc(-c2ccncc2)c2scc(N3CCNCC3)c2c1=O [Example 12, 5-methyl-3-(piperazin-1-yl)-7-(pyridin-4-yl)thieno[2,3-d]pyridazin-4(5H)-one (dihydrochloride salt)] | – | ++ (++: <100 μl min^−1 mg^−1) | ++ (++: <100 μl min^−1 mg^−1)
